# According to paper PMC9455983 (International Journal of Molecular Sciences, 2022):
# Where “and” joins values, the source holds several entries; their conditions need not be identical. Equal values may be shown once. Read-outs that look alike come from different tables or passages of the source.
# Legend:
# [1] = target: T1, delta-opioid receptor (DOR) (Rattus norvegicus, UniProt P33533); assay: DOR radioligand competition binding assay ([3H]-DPDPE); conditions: Delta screening results
# T1 construct: Rat cortices were homogenized using 50 mM Tris, pH 7.4, 10 mM MgCl2-6H2O, 200 µM PMSF; from tissue; host or cells: rat cortex membranes
# Protocol: DOR binding assay: Rat cortices were homogenized using 50 mM Tris, pH 7.4, 10 mM MgCl2-6H2O, 200 µM PMSF, centrifuged and incubated as above. Each assay tube contained 2 nM [^3H]-DPDPE. Assay tubes were incubated for 2.5 h at 25 °C. Unlabeled DPDPE was used as a competitor to generate a standard curve and determine nonspecific binding.
# (§1) All three binding assays were terminated by filtration through GF/B filters, soaked in 5 mg/mL bovine serum albumin, 50 mM Tris, pH 7.4, on a Tomtec Mach II Harvester 96. The filters were subsequently washed with 6 mL of assay buffer. Bound radioactivity was counted on a Wallac Betaplate Liquid Scintillation Counter. Experiments were conducted using two replicates and repeated twice. Values in Scheme 2 represent the mean ± SD of two experiments with two replicates in each test.
# [2] = target: T2, mu-opioid receptor (MOR) (Rattus norvegicus, UniProt P33535); assay: MOR radioligand competition binding assay ([3H]-DAMGO); conditions: Mu screening results
# T2 construct: Rat cortices were homogenized using 50 mM Tris, pH 7.4, and centrifuged at 16,500 rpm for 10 min; from tissue; host or cells: rat cortex membranes
# Protocol: MOR binding assay: Rat cortices were homogenized using 50 mM Tris, pH 7.4, and centrifuged at 16,500 rpm for 10 min. The pellets were resuspended in fresh buffer and incubated at 37 °C for 30 min. Following incubation, the suspensions were centrifuged as before, the resulting pellets were resuspended in 100 volumes of 50 mM Tris, pH 7.4 plus 2 mg/mL bovine serum and the suspensions combined. Each assay tube contained 0.5 mL of membrane suspension, 2 nM [^3H]-DAMGO, and 0.02 mg/mL mixture in a total volume of 0.65 mL [13, 45, 53, 55].
# as §1
# [3] = target: T3, kappa-opioid receptor (KOR) (Cavia porcellus, UniProt P41144); assay: KOR radioligand competition binding assay ([3H]U69,593); parameters: species or system guinea pig; conditions: Kappa screening results
# T3 construct: Guinea pig cortices and cerebella were homogenized using 50 mM Tris, pH 7.4; from tissue; host or cells: guinea pig cortex and cerebellum membranes
# Protocol: KOR binding assay: Guinea pig cortices and cerebella were homogenized using 50 mM Tris, pH 7.4, 10 mM MgCl2-6H2O, […] centrifuged and incubated as above. Each assay tube contained 2 nM [^3H]U69,593. Assay tubes were incubated for 2 h at 25 °C. Unlabeled U50,488 was used as a competitor to generate a standard curve and determine nonspecific binding.
# as §1
# [4] = first Ki column, unit not printed (apparently M), read-out: Ki (first column)
# [5] = mean of both Ki, unit inferred, read-out: MEAN (Ki)
# [6] = mean of two experiments, read-out: Ki
# [7] = second Ki column, unit not printed (apparently M), read-out: Ki (second column)
# [8] = experiment 1, unit inferred, read-out: Ki (Exp 1)
# [9] = experiment 2, unit inferred, read-out: Ki (Exp 2)
# [10] = mean of Exp 1 and Exp 2, unit inferred, read-out: MEAN (Ki)
Compound,"Ki [1, 4] [nM]","Ki [1, 5] [nM]","Ki [1, 6] [nM]","Ki [1, 7] [nM]","Ki [2, 8] [nM]","Ki [2, 9] [nM]","Ki [2, 10] [nM]","Ki [2, 6] [nM]","Ki [3, 8] [nM]","Ki [3, 9] [nM]","Ki [3, 10] [nM]","Ki [3, 6]"
Cc1cc(O)cc(C)c1C[C@H]1CN([C@@H](Cc2ccc(O)cc2)CN2C(=N)NC[C@@H]2Cc2c(C)cc(O)cc2C)C(=N)N1 [1968-56],1330,1300,1300,1260,55,69.9,62.5,62,736,1250,991,991 nM
N=C1NC[C@H](Cc2ccccc2)N1C[C@H](Cc1ccc(O)cc1)N1C[C@H](Cc2ccccc2)NC1=N [1968-5],6400,9230,9230,12100,925,671,798,798,3950,3730,3840,3840 nM
CC(C)C[C@H]1CN([C@@H](Cc2ccc(O)cc2)CN2C(=N)NC[C@@H]2C)C(=N)N1 [1968-39],4150,3830,3830,3510,1240,1770,1500,1500,4090,7720,5900,5900 nM
Cc1cc(O)cc(C)c1C[C@H]1CN([C@@H](Cc2c(C)cc(O)cc2C)CN2C(=N)NC[C@@H]2Cc2ccc(O)cc2)C(=N)N1 [1968-32],469,488,488,507,106,134,120,120,1760,1480,1620,1620 nM
Cc1cc(O)cc(C)c1C[C@H]1CNC(=N)N1C[C@H](CC(C)C)N1C[C@H](Cc2ccc(O)cc2)NC1=N [1968-58],1150,896,896,638,55.1,62,58.6,59,542,775,659,659 nM
Cc1cc(O)cc(C)c1C[C@H]1CN([C@@H](Cc2ccccc2)CN2C(=N)NC[C@@H]2Cc2c(C)cc(O)cc2C)C(=N)N1 [1968-52],582,551,551,521,83.4,102,92.8,93,1200,1240,1220,1220 nM
Cc1cc(O)cc(C)c1C[C@H]1CNC(=N)N1C[C@H](Cc1ccc(O)cc1)N1C[C@H](Cc2ccc(O)cc2)NC1=N [1968-54],3550,3280,3280,3010,72.3,56.4,64.3,64,1460,1600,1530,1530 nM
Cc1cc(O)cc(C)c1C[C@H]1CN([C@@H](CC(C)C)CN2C(=N)NC[C@@H]2Cc2ccc(O)cc2)C(=N)N1 [1968-28],4800,5070,5070,5340,118,119,118,118,840,1400,1120,1120 nM
Cc1cc(O)cc(C)c1C[C@@H](CN1C(=N)NC[C@@H]1Cc1ccc(O)cc1)N1C[C@H](Cc2ccc(O)cc2)NC1=N [1968-30],1340,1200,1200,1070,98.8,127,113,113,1730,1760,1740,1740 nM
CC(C)C[C@@H](CN1C(=N)NC[C@@H]1Cc1ccccc1)N1C[C@H](Cc2ccc(O)cc2)NC1=N [1968-10],2230,2210,2210,2190,199,281,240,240,5470,4840,5160,5160 nM
Cc1cc(O)cc(C)c1C[C@@H](CN1C(=N)NC[C@@H]1C)N1C[C@H](CC(C)C)NC1=N [1968-19],1180,1090,1100,1010,15.9,14.2,15,15,89.3,43.8,66.5,66.5 nM and 66 nM
CC(C)C[C@@H](CN1C(=N)NC[C@@H]1Cc1ccc(O)cc1)N1C[C@H](Cc2ccc(O)cc2)NC1=N [1968-26],7480,8070,8070,8670,781,751,766,766,15800,13200,14500,14500 nM
CC(C)C[C@H]1CN([C@@H](Cc2ccccc2)CN2C(=N)NC[C@@H]2Cc2ccccc2)C(=N)N1 [1968-3],6370,6660,6660,6950,2560,2630,2590,2590,4510,4840,4670,4670 nM
Cc1cc(O)cc(C)c1C[C@@H](CN1C(=N)NC[C@@H]1Cc1ccccc1)N1C[C@H](Cc2ccccc2)NC1=N [1968-67],828,830,830,833,230,177,203,203,1230,1120,1170,1170 nM
CC(C)C[C@H]1CN([C@@H](CC(C)C)CN2C(=N)NC[C@@H]2C)C(=N)N1 [1968-43],9250,7970,7970,6690,7810,10700,9260,9260,36000,53000,44500,44500 nM
N=C1NC[C@H](Cc2ccc(O)cc2)N1C[C@H](Cc1ccc(O)cc1)N1C[C@H](Cc2ccc(O)cc2)NC1=N [1968-70],9960,10800,10800,11700,230,282,256,256,11100,5550,8320,8320 nM
Cc1cc(O)cc(C)c1C[C@@H](CN1C(=N)NC[C@@H]1Cc1ccc(O)cc1)N1C[C@H](CC(C)C)NC1=N [1968-31],2200,1940,1940,1680,295,298,297,297,2580,2080,2330,2330 nM
Cc1cc(O)cc(C)c1C[C@@H](CN1C(=N)NC[C@@H]1Cc1ccccc1)N1C[C@H](CC(C)C)NC1=N [1968-15],1070,1250,1250,1440,350,260,305,305,568,504,536,536 nM
Cc1cc(O)cc(C)c1C[C@H]1CN([C@@H](Cc2ccc(O)cc2)CN2C(=N)NC[C@@H]2C)C(=N)N1 [1968-40],1520,1420,1420,1320,36.4,48.8,42.6,43,235,263,249,249 nM
